Laboratory results published in PubChem BioAssay (NCI).
“And” between values parts separate entries of the source, which are not always exact repeats. Equal values may be shown once.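 Briefly, cells in 96-well plates were exposed to five compound concentrations for 48 h, and endpoints were estimated by linear interpolation. GI50: concentration for 50% inhibition of growth. TGI is the concentration that stops growth completely.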

Experiments:
Test in all cases: DTP human tumour cell line panel, 48 h
SF-295 CNS = tested on: SF-295 CNS
EKVX NSCLC = tested on: EKVX NSCLC
TK-10 renal = tested on: TK-10 renal
U251 CNS = tested on: U251 CNS
HCC-2998 colon = tested on: HCC-2998 colon
SNB-75 CNS = tested on: SNB-75 CNS
SR leukemia = tested on: SR leukemia
NCI-H460 lung = tested on: NCI-H460 lung
COLO 205 colon = tested on: COLO 205 colon
UACC-257 melanoma = tested on: UACC-257 melanoma

SMILES | GI50 (SF-295 CNS) | TGI (SF-295 CNS) | GI50 (EKVX NSCLC) [µM] | TGI (EKVX NSCLC) [µM] | GI50 (TK-10 renal) | TGI (TK-10 renal) | GI50 (U251 CNS) | TGI (U251 CNS) | GI50 (HCC-2998 colon) | TGI (HCC-2998 colon) | GI50 (SNB-75 CNS) | TGI (SNB-75 CNS) | GI50 (SR leukemia) | TGI (SR leukemia) | GI50 (NCI-H460 lung) | TGI (NCI-H460 lung) | GI50 (COLO 205 colon) | TGI (COLO 205 colon) | GI50 (UACC-257 melanoma) | TGI (UACC-257 melanoma)
COc1cc(C2NC(=O)C(C#N)=C(Nc3cccc(C)c3)S2)ccc1O (stereo not drawn) | > 100 µM | > 100 µM | > 100 | > 100 | > 100 µM | > 100 µM | > 100 µM | > 100 µM | > 100 µM | > 100 µM | > 100 µM | > 100 µM | > 100 µM | > 100 µM | > 100 µM | > 100 µM | > 100 µM | > 100 µM | > 100 µM | > 100 µM
COc1cc(-c2ccc[nH]2)[nH]c1/C=C1\N=C(C)C(CC(=O)OCC(C)(C)C)=C1C | 0.171 µM | 0.51 µM | 0.0903 | 1.7 | 0.326 µM | 1.19 µM | 0.141 µM | 1.23 µM | 0.368 µM | 1.75 µM | 0.228 µM | 0.903 µM | 0.122 µM | 0.617 µM | 0.137 µM | 1.35 µM | 0.206 µM | 1.22 µM | 0.339 µM | 1.52 µM
C=C(C)C(=O)Nc1ccc(-c2c(-c3ccc(Oc4nccc(C)n4)c(F)c3)c3c(N)ncnc3n2C)cc1 | 2.59 µM | 13.4 µM | 3.43 | 17.1 | 4.98 µM | 30 µM | 6.21 µM | 25 µM | 7.45 µM | 21 µM | 1.18 µM | 7.32 µM | 2.36 µM | 9.64 µM | 3.05 µM | 13.3 µM | 3.79 µM | 13.8 µM | 9.27 µM | 23.6 µM
O=C1[C@@H]2C(c3ccccc3[N+](=O)[O-])=NO[C@@H]2C(=O)N1c1ccc(Cc2ccc(N3C(=O)[C@H]4C(c5ccccc5[N+](=O)[O-])=NO[C@H]4C3=O)cc2)cc1 | – | > 100 µM | – | > 100 | – | > 100 µM | – | > 100 µM | – | > 100 µM | – | > 100 µM | – | > 100 µM | – | > 100 µM | – | > 100 µM | – | > 100 µM
Cn1c(I)c(C#C[Si](C)(C)C)c(=O)[nH]c1=O | 20 µM | 45.8 µM | 10.9 | 24.8 | 7.93 µM | 22.8 µM | 12.8 µM | 25.5 µM | 2.32 µM | 4.59 µM | 15.2 µM | 29.3 µM | 3.37 µM | 5.82 µM | 19.7 µM | 41.3 µM | 1.87 µM | 3.69 µM | 0.236 µM | 3.85 µM
Cc1c(-c2ccccn2)ccc2ccccc12 | – | > 100 µM | – | > 100 | – | > 100 µM | – | > 100 µM | – | > 100 µM | – | > 100 µM | – | > 100 µM | – | > 100 µM | – | > 100 µM | – | > 100 µM
COc1ccc2c(c1)-c1c(c3cc(OC)ccc3n(CCN(C)C)c1=O)C2=O | 0.714 µM | 2.99 µM | 1.37 | 10.2 | 1.65 µM | 6.98 µM | 0.443 µM | 6.77 µM | 1.18 µM | 9.24 µM | 1.36 µM | 7.49 µM | 0.592 µM | 2.64 µM | 0.341 µM | 2.09 µM | 0.461 µM | 4.7 µM | 1.3 µM | 4.78 µM
CNC(=O)c1cc(Oc2ccc(NC(=O)Nc3cc(C(C)(C)C)nn3-c3ccc4ncccc4c3)c(F)c2)ccn1 | 1.69 µM and 1.58 µM | 8.26 µM and 5.62 µM | 2.72 | 8.61 | 1.83 µM and 1.7 µM | 6.79 µM and 6.93 µM | 2.72 µM and 2.33 µM | 8.87 µM and 7.22 µM | 3.21 µM and 3.38 µM | 7.82 µM and 7.78 µM | 1.09 µM and 1.01 µM | 2.7 µM and 3.01 µM | 0.633 µM and 0.497 µM | 3.91 µM and 3.85 µM | 2.06 µM and 2.04 µM | 8.11 µM and 6.93 µM | 0.459 µM and 0.62 µM | 1.85 µM and 2.2 µM | 0.477 µM and 0.44 µM | 5.56 µM and 3.72 µM
CC1(C)C(=O)/C=C\C(=O)C(C)(C)C(=O)/C=C\C(=O)C(C)(C)C2=CC=C(O2)C(C)(C)C(=O)/C=C\C1=O | – | 31.1 µM | – | 11.6 | – | 13.4 µM | – | 30.4 µM | – | 24.1 µM | – | 20.2 µM | – | 4.05 µM | – | 46.8 µM | – | 6.45 µM | – | 16.6 µM
Fc1ccc(Nc2nc(Nc3ccc(-c4nc5ccccc5[nH]4)cc3)c3cn[nH]c3n2)cc1 | 1.87 µM | 4.08 µM | 2.5 | 8.28 | 2.29 µM | 5.29 µM | 2.1 µM | 4.34 µM | 1.57 µM | 3.05 µM | 1.35 µM | 3.57 µM | 2.22 µM | 5.9 µM | 1.99 µM | 3.97 µM | 1.75 µM | 3.67 µM | 2 µM | 4.37 µM
C[C@]12CCC(=O)C[C@@H]1CC[C@@H]1[C@@H]2CC[C@]2(C)[C@@H](OC(=O)N(CCCl)N=O)CC[C@@H]12 | 0.133 µM | > 45.4 µM | 4.88 | > 41.1 | 3.85 µM | 27.7 µM | 0.394 µM | 14 µM | 0.933 µM | 7.95 µM | 0.507 µM | 13.3 µM | – | > 37.7 µM | 0.06 µM | 2.99 µM | 1.7 µM | 4.72 µM | 1.14 µM | 8.58 µM
Oc1[nH]c2ccccc2c1C=Nc1ccc(-n2cncn2)cc1 | > 25 µM | > 25 µM | > 25 | > 25 | > 17.1 µM | > 25 µM | > 21.6 µM | > 25 µM | > 25 µM | > 25 µM | > 25 µM | > 25 µM | 19 µM | > 25 µM | > 23 µM | > 25 µM | > 25 µM | > 25 µM | > 25 µM | > 25 µM
COc1ccc2c(c1)C(=O)c1c-2n(CCCN(C)C)c(=O)c2cc([N+](=O)[O-])ccc12 | < 0.01 µM | < 0.0188 µM | 0.181 | 16.4 | 0.604 µM | 5.38 µM | < 0.01 µM | 1.07 µM | 0.0131 µM | 0.255 µM | < 0.01 µM | 2.74 µM | < 0.01 µM | – | < 0.01 µM | 0.234 µM | 0.0483 µM | 12.9 µM | 0.227 µM | 29.4 µM
